The values below come from ChEMBL document CHEMBL1137005 (Bioorg Med Chem Lett, 2009).

The source made the active and inactive calls. The calls are words filed in the database; no cut-off is given here.

One data set deals with T1, Epoxide hydrolase 1 (Homo sapiens, UniProt P07099).
T1 sequence (P07099 whole entry): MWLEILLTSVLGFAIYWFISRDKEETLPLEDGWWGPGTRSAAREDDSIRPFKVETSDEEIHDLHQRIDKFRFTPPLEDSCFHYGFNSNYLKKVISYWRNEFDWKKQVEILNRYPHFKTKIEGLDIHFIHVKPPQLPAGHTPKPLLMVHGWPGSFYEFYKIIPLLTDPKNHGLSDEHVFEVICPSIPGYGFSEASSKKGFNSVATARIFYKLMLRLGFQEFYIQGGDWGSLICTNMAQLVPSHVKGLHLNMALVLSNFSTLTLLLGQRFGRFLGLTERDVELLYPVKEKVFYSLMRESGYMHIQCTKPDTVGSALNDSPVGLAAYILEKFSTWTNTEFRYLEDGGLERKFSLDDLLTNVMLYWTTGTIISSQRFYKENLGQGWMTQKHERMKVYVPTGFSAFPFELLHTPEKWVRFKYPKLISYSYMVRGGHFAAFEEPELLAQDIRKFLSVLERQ
The data set is described as follows: Inhibition of human microsomal epoxide hydrolase.

In data set [1] the target is T2, Bifunctional epoxide hydrolase 2 (Homo sapiens, UniProt P34913).
T2 sequence (P34913 whole entry): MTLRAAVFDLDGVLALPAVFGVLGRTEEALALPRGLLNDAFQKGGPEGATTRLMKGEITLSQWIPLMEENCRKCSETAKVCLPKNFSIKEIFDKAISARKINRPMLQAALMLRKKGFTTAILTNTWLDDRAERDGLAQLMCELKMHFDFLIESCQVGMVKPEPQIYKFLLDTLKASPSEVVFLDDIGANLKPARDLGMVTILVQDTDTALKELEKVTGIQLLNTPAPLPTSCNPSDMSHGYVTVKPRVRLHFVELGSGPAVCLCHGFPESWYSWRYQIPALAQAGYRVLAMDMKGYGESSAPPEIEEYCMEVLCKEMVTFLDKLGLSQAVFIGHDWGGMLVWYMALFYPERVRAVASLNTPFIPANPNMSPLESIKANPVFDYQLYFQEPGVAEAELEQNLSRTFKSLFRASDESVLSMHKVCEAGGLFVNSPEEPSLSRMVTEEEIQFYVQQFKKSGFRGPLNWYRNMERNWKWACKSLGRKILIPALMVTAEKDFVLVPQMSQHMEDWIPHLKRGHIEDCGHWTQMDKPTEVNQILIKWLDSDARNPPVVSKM
In words: Inhibition of human soluble epoxide hydrolase.

For data set [2], the target named is T3, Bifunctional epoxide hydrolase 2 (Rattus norvegicus, UniProt P80299).
T3 sequence (P80299 whole entry): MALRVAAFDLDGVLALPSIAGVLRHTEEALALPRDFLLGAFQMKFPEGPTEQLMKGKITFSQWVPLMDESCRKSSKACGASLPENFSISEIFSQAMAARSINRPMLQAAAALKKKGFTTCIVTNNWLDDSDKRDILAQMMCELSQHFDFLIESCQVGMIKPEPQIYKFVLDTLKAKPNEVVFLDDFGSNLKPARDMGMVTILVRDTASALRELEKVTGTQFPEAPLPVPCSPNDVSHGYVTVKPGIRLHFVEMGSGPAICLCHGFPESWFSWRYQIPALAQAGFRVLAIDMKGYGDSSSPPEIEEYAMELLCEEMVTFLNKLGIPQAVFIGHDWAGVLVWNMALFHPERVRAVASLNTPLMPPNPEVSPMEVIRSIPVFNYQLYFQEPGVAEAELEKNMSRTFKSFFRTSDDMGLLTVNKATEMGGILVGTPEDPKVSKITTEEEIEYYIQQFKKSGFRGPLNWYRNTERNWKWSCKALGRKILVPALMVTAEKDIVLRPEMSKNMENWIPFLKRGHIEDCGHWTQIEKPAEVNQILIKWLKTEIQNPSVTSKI
In words: Inhibition of rat soluble epoxide hydrolase.

In data set [3] the target is T2, Bifunctional epoxide hydrolase 2. In words: Inhibition of human soluble epoxide hydrolase in HEK293 cells assessed as DHET production. Format: cell-based.
Another data set concerns the target Cytochrome P450 2C9 (Homo sapiens, UniProt P11712). The data set is described as follows: Inhibition of CYP2C9. Format: ADME.
The next data set has as its target Cytochrome P450 2D6 (Homo sapiens, UniProt P10635). The data set is described as follows: Inhibition of CYP2D6. The data set is classed as ADME.
A further data set deals with Cytochrome P450 3A4 (Homo sapiens, UniProt P08684). The data set is described as follows: Inhibition of CYP3A4. The data set is classed as ADME.
Chain of Cytochrome P450 3A4 (P08684 whole entry): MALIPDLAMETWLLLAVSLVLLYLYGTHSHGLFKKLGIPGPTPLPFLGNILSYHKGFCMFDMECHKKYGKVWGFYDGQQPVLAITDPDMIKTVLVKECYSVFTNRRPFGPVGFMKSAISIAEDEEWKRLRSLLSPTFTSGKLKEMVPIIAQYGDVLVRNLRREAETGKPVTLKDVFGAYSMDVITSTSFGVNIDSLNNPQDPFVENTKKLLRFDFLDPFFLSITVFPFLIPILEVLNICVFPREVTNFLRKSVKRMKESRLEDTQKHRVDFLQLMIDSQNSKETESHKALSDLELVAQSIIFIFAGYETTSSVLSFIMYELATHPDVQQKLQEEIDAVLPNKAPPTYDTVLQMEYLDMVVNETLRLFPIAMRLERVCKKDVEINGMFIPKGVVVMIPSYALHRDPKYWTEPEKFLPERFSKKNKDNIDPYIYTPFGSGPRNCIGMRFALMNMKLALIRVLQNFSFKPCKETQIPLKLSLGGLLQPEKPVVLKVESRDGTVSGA
The nature of data set [4]: Inhibition of potassium channel IKr.
Data set [5] deals with Sodium channel protein type 5 subunit alpha (Homo sapiens, UniProt Q14524). The data set is described as follows: Inhibition of Voltage-gated sodium channel subunit alpha Nav1.5.
Chain of Sodium channel protein type 5 subunit alpha (Q14524 whole entry): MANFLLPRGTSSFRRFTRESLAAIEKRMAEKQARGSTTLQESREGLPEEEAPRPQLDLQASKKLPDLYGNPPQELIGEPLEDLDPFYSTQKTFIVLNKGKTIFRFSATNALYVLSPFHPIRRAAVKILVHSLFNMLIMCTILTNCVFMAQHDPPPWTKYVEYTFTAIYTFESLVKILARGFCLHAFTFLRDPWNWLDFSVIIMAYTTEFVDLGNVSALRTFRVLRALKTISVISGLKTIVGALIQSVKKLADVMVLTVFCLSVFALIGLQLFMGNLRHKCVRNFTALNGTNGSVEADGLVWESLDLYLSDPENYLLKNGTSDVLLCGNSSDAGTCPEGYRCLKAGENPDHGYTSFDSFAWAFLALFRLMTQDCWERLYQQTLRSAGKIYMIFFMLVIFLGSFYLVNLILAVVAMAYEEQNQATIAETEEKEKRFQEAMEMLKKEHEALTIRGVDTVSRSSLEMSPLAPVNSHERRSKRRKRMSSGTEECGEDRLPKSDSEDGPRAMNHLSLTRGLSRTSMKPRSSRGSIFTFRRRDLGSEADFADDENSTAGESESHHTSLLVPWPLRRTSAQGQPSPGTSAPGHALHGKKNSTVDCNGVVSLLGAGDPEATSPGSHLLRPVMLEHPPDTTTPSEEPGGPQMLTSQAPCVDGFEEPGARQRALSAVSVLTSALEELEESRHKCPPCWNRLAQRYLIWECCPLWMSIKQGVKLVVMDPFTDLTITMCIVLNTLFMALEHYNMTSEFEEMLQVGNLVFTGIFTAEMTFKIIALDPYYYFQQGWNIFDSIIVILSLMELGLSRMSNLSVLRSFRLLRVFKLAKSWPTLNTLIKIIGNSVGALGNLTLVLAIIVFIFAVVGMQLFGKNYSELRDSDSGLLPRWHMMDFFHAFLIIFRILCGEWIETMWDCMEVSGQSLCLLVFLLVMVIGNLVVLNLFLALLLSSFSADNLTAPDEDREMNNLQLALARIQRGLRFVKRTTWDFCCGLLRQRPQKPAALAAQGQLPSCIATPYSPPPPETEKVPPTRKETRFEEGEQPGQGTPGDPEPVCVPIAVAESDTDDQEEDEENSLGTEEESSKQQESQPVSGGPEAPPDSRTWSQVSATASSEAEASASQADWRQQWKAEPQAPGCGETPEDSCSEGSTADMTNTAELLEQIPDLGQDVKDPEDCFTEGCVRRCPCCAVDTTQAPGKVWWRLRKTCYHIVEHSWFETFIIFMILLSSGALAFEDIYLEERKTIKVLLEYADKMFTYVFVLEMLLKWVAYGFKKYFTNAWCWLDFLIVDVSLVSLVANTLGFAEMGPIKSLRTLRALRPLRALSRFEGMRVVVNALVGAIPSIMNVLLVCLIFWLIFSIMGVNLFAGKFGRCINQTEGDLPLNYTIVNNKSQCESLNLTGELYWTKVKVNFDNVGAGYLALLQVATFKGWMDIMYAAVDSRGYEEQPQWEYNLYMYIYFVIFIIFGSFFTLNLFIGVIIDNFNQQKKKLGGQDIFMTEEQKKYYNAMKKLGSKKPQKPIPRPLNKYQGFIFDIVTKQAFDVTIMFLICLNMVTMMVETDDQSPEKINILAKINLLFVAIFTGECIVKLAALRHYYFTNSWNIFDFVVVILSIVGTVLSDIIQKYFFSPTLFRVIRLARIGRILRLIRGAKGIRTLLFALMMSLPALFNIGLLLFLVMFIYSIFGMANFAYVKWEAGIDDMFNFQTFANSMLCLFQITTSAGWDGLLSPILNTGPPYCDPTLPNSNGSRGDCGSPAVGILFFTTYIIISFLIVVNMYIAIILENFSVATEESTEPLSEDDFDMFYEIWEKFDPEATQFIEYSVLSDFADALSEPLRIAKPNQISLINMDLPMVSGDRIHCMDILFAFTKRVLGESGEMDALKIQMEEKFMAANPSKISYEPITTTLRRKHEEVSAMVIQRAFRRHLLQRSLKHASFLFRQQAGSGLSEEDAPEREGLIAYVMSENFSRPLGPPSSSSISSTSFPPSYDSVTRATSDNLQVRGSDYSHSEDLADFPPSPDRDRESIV
The target in data set [6] is Voltage-dependent L-type calcium channel subunit alpha-1C (Homo sapiens, UniProt Q13936). The data set is described as follows: Activity at Cav 1.2 channel.
For a further data set, the system named is Blood. In words: Inhibition of DHET production in rat whole blood at 1 uM after 1 hr. The data set is classed as functional. On the set-up: Activity: scale not given: the % may be the effect or the level left.
The nature of data set [7]: Binding affinity to […] channel diltiazem binding site.
A short description of data set [8]: Bioavailability in rat at 1 mg/kg, iv and 2 mg/kg, po. Conditions: in vivo. Format: ADME, organism-based.
Data set [9] is described as follows: Clearance in rat at 1 mg/kg, iv and 2 mg/kg, po. The data set is classed as ADME, organism-based. Conditions: in vivo.
Data set [10] in a line: Volume of distribution at steady state in rat at 1 mg/kg, iv and 2 mg/kg, po. The data set is classed as ADME, organism-based. Conditions: in vivo, read-out: Vdss.
A short description of data set [11]: Half life in rat at 1 mg/kg, iv and 2 mg/kg, po. The data set is classed as ADME, organism-based. The conditions noted are these: in vivo.
For data set [12], the system named is Rattus norvegicus. In words: Plasma concentration in spontaneously hypertensive rat plasma at 50 mg/kg, po. The data set is classed as ADME, organism-based. On the set-up: dose 50 mg/kg, route oral. Conditions: in vivo.
Data set [13] deals with Rattus norvegicus. In words: Ex vivo inhibition of DHET production in spontaneously hypertensive rat plasma at 50 mg/kg, po after 0.5 to 6 hrs. The data set is classed as functional.
Data set [14] can be described thus: Plasma concentration in spontaneously hypertensive rat plasma at 300 mg/kg, after 2 hrs. The data set is classed as ADME, organism-based. On the set-up: dose 300 mg/kg.
Data set [15] in a line: Plasma concentration in spontaneously hypertensive rat plasma at 300 mg/kg, after 5 hrs. Format: ADME, organism-based. On the set-up: dose 300 mg/kg.
Data set [16] in a line: Plasma concentration in spontaneously hypertensive rat plasma at 300 mg/kg, after 24 hrs. Format: ADME, organism-based. On the set-up: dose 300 mg/kg.
In data set [17] the test system is Rattus norvegicus. The data set is described as follows: Antihypertensive activity in spontaneously hypertensive rat assessed as change in systolic blood pressure at 300 mg/kg, po. Format: functional, organism-based. On the set-up: dose 300 mg/kg. Conditions: Artery.
The subject of data set [18] is Rattus norvegicus. The data set is described as follows: Antihypertensive activity in spontaneously hypertensive rat assessed as change in diastolic blood pressure at 300 mg/kg, po. The data set is classed as functional, organism-based. On the set-up: dose 300 mg/kg. Conditions: Artery.
Data set [19] concerns Rattus norvegicus. The data set is described as follows: Antihypertensive activity in spontaneously hypertensive rat assessed as change in heart rate at 300 mg/kg, po. Format: functional, organism-based. On the set-up: dose 300 mg/kg.
The test system of data set [20] is Rattus norvegicus. The data set is described as follows: Antihypertensive activity in spontaneously hypertensive rat assessed as change in pulse pressure at 300 mg/kg, po. The data set is classed as functional, organism-based. On the set-up: dose 300 mg/kg.

By IC50 is commonly meant the point on the concentration scale where inhibition reaches its midpoint. By bioavailability is commonly meant the share of a dose that reaches the circulation, judged against a reference dose that is usually intravenous. By half-life is commonly meant the time in which the quantity being followed falls by half. What is called inhibition is the drop in the measured response relative to a control, in per cent. What is called inhibition in vivo is the share of the control response that was lost under treatment.

Chain of Cytochrome P450 2D6 (P10635 whole entry): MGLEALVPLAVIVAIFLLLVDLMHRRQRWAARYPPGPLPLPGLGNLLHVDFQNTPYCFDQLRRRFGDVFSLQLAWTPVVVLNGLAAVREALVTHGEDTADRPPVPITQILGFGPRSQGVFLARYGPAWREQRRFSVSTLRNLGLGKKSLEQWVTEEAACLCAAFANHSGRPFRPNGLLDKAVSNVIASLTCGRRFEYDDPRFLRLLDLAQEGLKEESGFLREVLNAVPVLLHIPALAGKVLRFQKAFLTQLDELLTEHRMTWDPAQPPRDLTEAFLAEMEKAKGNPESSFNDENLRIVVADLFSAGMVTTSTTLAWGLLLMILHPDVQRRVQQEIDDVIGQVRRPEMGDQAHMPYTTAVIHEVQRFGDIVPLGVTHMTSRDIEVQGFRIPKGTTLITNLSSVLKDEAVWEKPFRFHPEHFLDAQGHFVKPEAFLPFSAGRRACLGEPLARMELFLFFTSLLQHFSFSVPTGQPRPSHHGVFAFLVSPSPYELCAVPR
Chain of Cytochrome P450 2C9 (P11712 whole entry): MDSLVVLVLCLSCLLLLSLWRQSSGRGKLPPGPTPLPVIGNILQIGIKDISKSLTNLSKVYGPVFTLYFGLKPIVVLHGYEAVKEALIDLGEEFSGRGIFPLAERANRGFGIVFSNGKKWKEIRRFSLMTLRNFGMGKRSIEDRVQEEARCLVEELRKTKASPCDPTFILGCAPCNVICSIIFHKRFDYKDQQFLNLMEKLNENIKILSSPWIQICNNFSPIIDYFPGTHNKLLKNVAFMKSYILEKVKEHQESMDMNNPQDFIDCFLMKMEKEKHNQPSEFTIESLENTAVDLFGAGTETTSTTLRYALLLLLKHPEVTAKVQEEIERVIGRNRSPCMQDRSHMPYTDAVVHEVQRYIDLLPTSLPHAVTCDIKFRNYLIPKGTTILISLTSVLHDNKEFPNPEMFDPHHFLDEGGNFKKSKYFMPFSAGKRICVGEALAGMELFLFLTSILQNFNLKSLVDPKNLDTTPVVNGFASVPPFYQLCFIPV

On to `O=C(N[C@H]1C[C@@H]1c1ccccc1)N1CCC2(CCc3ncccc3O2)CC1` (relative stereo), for which the 50% inhibitory concentration (IC50) was above 100 µM at Epoxide hydrolase 1; 0.005 µM in data set [1]; 0.021 µM in data set [2]; below 0.001 µM in [3]; above 10 µM at Cytochrome P450 2C9; above 10 µM on Cytochrome P450 2D6. For the same compound, the half-maximal inhibitory concentration (IC50) is above 10 µM on Cytochrome P450 3A4, above 30 µM in data set [4], above 10 µM in data set [5] and 20 µM in [6]. Further, the Activity with Blood turned out to be 9.2%.
Turning to `CS(=O)(=O)c1ccc2c(c1)CCC1(CCN(C(=O)c3ccc(C(F)(F)F)cc3)CC1)O2`, the IC50 was above 100 µM on Epoxide hydrolase 1; 0.002 µM in data set [1]; 0.019 µM in data set [2]; below 0.001 µM in [3]; 7.6 µM against Cytochrome P450 2C9; above 10 µM on Cytochrome P450 2D6. Also, the half-maximal inhibitory concentration (IC50) is above 10 µM on Cytochrome P450 3A4, above 30 µM in [7], 25 µM in [4] and above 10 µM in data set [5]. This compound also came in with an Activity with Blood of 66%. Also, the bioavailability in data set [8] worked out at 61%. The compound also showed a clearance in data set [9] of 0.9 mL/min/kg. Besides, in data set [10], the Vd was determined as 1.6 L/kg. Further, the half-life in data set [11] was 18 h.
`CS(=O)(=O)c1ccc2c(c1)CCC1(CCN(C(=O)Cc3ccc(Cl)cc3Cl)CC1)O2`: the IC50 in data set [2] is 0.004 µM; in [7], above 30 µM; in data set [4], 0.8 µM. In addition, in data set [8], the bioavailability came to 67%. The clearance in [9] was 0.7 mL/min/kg. Besides, the Vd in data set [10] came out at 0.15 L/kg. The compound further gave a half-life in [11] of 2.6 h.
On to `CS(=O)(=O)c1ccc2c(c1)CCC1(CCN(C(=O)N[C@H]3C[C@@H]3c3ccccc3)CC1)O2.Cl` (racemic), for which the inhibition at 1 µM with Blood (Rattus norvegicus, Blood, 1 h) is 32%. The bioavailability in data set [8] is 86%. In addition, the clearance in data set [9] turned out to be 0.7 mL/min/kg. Further, the Vd in data set [10] came out at 0.23 L/kg. In addition, the half-life in data set [11] was 3.9 h.
Consider `O=C1CC2(CCN(C(=O)N[C@H]3C[C@@H]3c3ccccc3)CC2)Oc2ccccc21` (racemic) [listing 1 of 2 here], for which, in the data set with Blood, the Activity was 8.6%. In data set [8], this compound had a bioavailability of 61%. Also, the clearance in data set [9] came out at 47 mL/min/kg. Besides, in data set [10], the Vd came out at 3.1 L/kg. Besides, the half-life in data set [11] is 1.5 h. Moreover, the concentration with Rattus norvegicus [12] stood at 800 nM. Besides, the inhibition in vivo at 50 mg/kg in the data set with Rattus norvegicus [13] is above 95%. Further, in data set [14], the concentration at 2 h is 3600 nM. Besides, the concentration at 5 h in data set [15] was determined as 2700 nM. The compound further returned a concentration at 24 h in [16] of 1700 nM.
For the compound `CS(=O)(=O)c1ccc2c(c1)C(=O)CC1(CCN(C(=O)N[C@H]3C[C@@H]3c3ccccc3)CC1)O2` (racemic), the IC50 in data set [1] is 0.004 µM; in data set [2] it was 0.012 µM; on Cytochrome P450 2C9 it was above 10 µM; against Cytochrome P450 2D6, above 10 µM; on Cytochrome P450 3A4, above 10 µM; in data set [7], above 26 µM. In addition, the values for the IC50 in data set [4] and in data set [5] were 4 µM and above 10 µM, respectively. In [8], this compound had a bioavailability of 49%. The same compound returned a clearance in data set [9] of 1 mL/min/kg. Further, the Vd in data set [10] was found to be 0.2 L/kg. This compound showed a half-life in data set [11] of 2.6 h.
For the compound `O=C1CC2(CCN(C(=O)N[C@H]3C[C@@H]3c3ccccc3)CC2)Oc2ccccc21` (racemic) [listing 2 of 2 here], the outcome in the data set with Rattus norvegicus [17], with Rattus norvegicus [18], with Rattus norvegicus [19] and with Rattus norvegicus [20] was inactive.
In the case of `O=C1CC2(CCN(C(=O)N[C@H]3C[C@@H]3c3ccccc3)CC2)Oc2cccnc21` (relative stereo), the IC50 is above 100 µM on Epoxide hydrolase 1; 0.008 µM in [1]; 0.02 µM in data set [2]; 0.004 µM in data set [3]; above 10 µM against Cytochrome P450 2D6; above 10 µM on Cytochrome P450 3A4. Moreover, the IC50 in data set [4] was above 30 µM; in data set [5] it was above 10 µM; in data set [6], above 30 µM. The compound further had an Activity in the data set on Blood of 12%.
